Test results taken from patent publication US8247211B2, “Glycopeptide antibiotics” (American Cyanamid Company, priority 2001, dated 2012).
≈ marks a conversion by molar mass, not a printed value. Numbered stars: 1 amine (or outer) side, 2 acyl side, 3 side chain; on linkers, the order of the positions; unused ones are H or OH. Square brackets hold non-standard residues; d marks the D form. Peptide text beside a SMILES is read from it. * marks the point of attachment. ξ: configuration not given here. X1 = N=C1NCC(C(O)C(N[*:1])C(=O)[*:2])N1C1OC(CO)C(O)C(O)C1O; ξEnduracididine(βξ-OH,4'ξ) = N=C1NCC(C(O)C(N)C(=O)O)N1; ξPhe(4-Cl,βξ-Me) = CC(c1ccc(Cl)cc1)C(N)C(=O)O; X2 = OCC1OC(OC2C(CO)OC(*)C(O)C2O)C(O)C(O)C1O

Columns and labels:
Assay in all cases: In vitro antibacterial evaluation: minimum inhibitory concentration (MIC), broth dilution method
Type in all cases: cell-based
Enterococcus sp. = tested on: Enterococcus sp.
Procedure: (§1) The minimum inhibitory concentration (MIC), the lowest concentration of the antibiotic which inhibits growth of the test organism, is determined by the broth dilution method using Muller-Hinton II […] (Baltimore Biological Laboratories) following the recommendations of the National Committee for Clinical Laboratory Standards [Methods for dilution antimicrobial susceptibility tests for bacteria that grow aerobically, approved standard M7-A2, National Committee for Clinical Laboratory Standards, Villanova, Pa].
(§2) An inoculum level of 5×10^5 CFU/mL, and a range of antibiotic concentrations (64-0.06 μg/mL) is used. […] The test organisms include a spectrum of Gram-positive bacteria comprised of Staphylococcus sp., Streptococcus sp. and Enterococcus sp. These organisms include recent clinical isolates that are resistant to methicillin, penicillin and/or vancomycin.

Escherichia coli = Escherichia coli (GC 4560)
Procedure: as §1, §2

Streptococcus sp. = settings: 18 hours at 35° C.
Procedure: as §1, §2

Staphylococcus sp. = settings: 18 hours at 35° C.
Procedure: as §1, §2

Structure (SMILES)	MIC Escherichia coli (GC 4560) (Escherichia coli) [µg/mL]	MIC Coagulase Negative Staphylococcus (GC 4547) (Staphylococcus sp.) [µg/mL]	MIC Coagulase Negative Staphylococcus (GC 4547) (Staphylococcus sp.; broth dilution) [µg/mL]	MIC Coagulase Negative Staphylococcus (GC 4548) (Staphylococcus sp.) [µg/mL]	MIC Coagulase Negative Staphylococcus (GC 4548) (Staphylococcus sp.; broth dilution) [µg/mL]	MIC Coagulase Negative Staphylococcus (GC 4549) (Staphylococcus sp.) [µg/mL]	MIC Coagulase Negative Staphylococcus (GC 4549) (Staphylococcus sp.; broth dilution) [µg/mL]	MIC Staphylococcus aureus (ATCC 29213) (Staphylococcus sp.) [µg/mL]	MIC Staphylococcus aureus (ATCC 29213) (Staphylococcus sp.; broth dilution) [µg/mL]	MIC Staphylococcus aureus (GC 4541) (Staphylococcus sp.) [µg/mL]	MIC Staphylococcus aureus (GC 4541) (Staphylococcus sp.; broth dilution) [µg/mL]	MIC Staphylococcus aureus (GC 4544) (Staphylococcus sp.) [µg/mL]	MIC Staphylococcus aureus (GC 4544) (Staphylococcus sp.; broth dilution) [µg/mL]	MIC Staphylococcus aureus (GC 4545) (Staphylococcus sp.) [µg/mL]	MIC Staphylococcus aureus (GC 4545) (Staphylococcus sp.; broth dilution) [µg/mL]	MIC Staphylococcus aureus-SMITH (GC 4543) (Staphylococcus sp.) [µg/mL]	MIC Staphylococcus aureus-SMITH (GC 4543) (Staphylococcus sp.; broth dilution) [µg/mL]	MIC Staphylococcus haemolyticus (GC 4546) (Staphylococcus sp.) [µg/mL]	MIC Staphylococcus haemolyticus (GC 4546) (Staphylococcus sp.; broth dilution) [µg/mL]	MIC Enterococcus faecium (GC 4557) (Enterococcus sp.) [µg/mL]	further results
CC(c1ccccc1)C1NC(=O)CNC(=O)C(CO)NC(=O)C(CC2CNC(=N)N2C2OC(CO)C(O)C(O)C2O)NC(=O)C(CC2CNC(=N)N2)NC(=O)C(Cc2ccc(OC3OC(CO)C(OC4OC(CO)C(O)C(O)C4OCc4ccc(OCc5ccccc5)cc4)C(O)C3O)cc2)NC1=O (centres unmarked) [Example 246c]	–	–	–	–	–	–	–	–	–	–	–	–	–	–	–	–	–	–	–	–	MIC Enterococcus avium (GC 4558) (Enterococcus sp.; Enterococcus avium (GC 4558), 18 hours at 35° C.): 64 µg/mL (≈ 43.8 µM); MIC Escherichia coli (GC 4560) (Escherichia coli; 18 hours at 35° C.): 32 µg/mL (≈ 21.9 µM); MIC Streptococcus pneumoniae (GC 1894) (Streptococcus sp.; Streptococcus pneumoniae (GC 1894)): 64 µg/mL (≈ 43.8 µM); MIC Streptococcus pneumoniae (GC 1894) (Streptococcus sp.; broth dilution, inoculum 5×10^5 CFU/mL): 64 µg/mL (≈ 43.8 µM)
CC(c1ccc(Cl)cc1)C1NC(=O)CNC(=O)C(CO)NC(=O)C(C(O)C2CNC(=N)N2C2OC(CO)C(O)C(O)C2O)NC(=O)C(C(O)C2CNC(=N)N2)NC(=O)C(Cc2ccc(OC3OC(CO)C(OC4OC(CO)C(O)C(O)C4O)C(O)C3O)cc2)NC1=O (stereo not drawn) [Example 262a, Cyclo[glycyl-4-chloro-β-methylphenylalanyl-O-(4-O-hexopyranosylhexopyranosyl)tyrosyl-3-(2-iminoimidazolidin-4-yl)seryl-3-(3-hexopyranosyl-2-iminoimidazolidin-4-yl)serylseryl]] (cyclo(G[ξPhe(4-Cl,βξ-Me)]Y(X2)[ξEnduracididine(βξ-OH,4'ξ)][X1]S); configuration not given here)	16 (≈ 12 µM)	64 (≈ 48.1 µM)	64 (≈ 48.1 µM)	64 (≈ 48.1 µM)	64 (≈ 48.1 µM)	16 (≈ 12 µM)	16 (≈ 12 µM)	64 (≈ 48.1 µM)	64 (≈ 48.1 µM)	64 (≈ 48.1 µM)	64 (≈ 48.1 µM)	64 (≈ 48.1 µM)	64 (≈ 48.1 µM)	64 (≈ 48.1 µM)	64 (≈ 48.1 µM)	64 (≈ 48.1 µM)	64 (≈ 48.1 µM)	64 (≈ 48.1 µM)	64 (≈ 48.1 µM)	–	MIC Streptococcus agalactiae (GC 4564) (Streptococcus sp.; Streptococcus agalactiae (GC 4564)): 32 µg/mL (≈ 24.1 µM); MIC Streptococcus pyogenes (ID-3187) (Streptococcus sp.; Streptococcus pyogenes (ID-3187)): 32 µg/mL (≈ 24.1 µM)
CC(C)C(=O)OCC1OC(OC2C(CO)OC(Oc3ccc(CC4NC(=O)C(Cc5ccccc5)NC(=O)CNC(=O)C(CO)NC(=O)C(C(O)C5CNC(=N)N5C5OC(CO)C(O)C(O)C5O)NC(=O)C(C(O)C5CNC(=N)N5)NC4=O)cc3)C(O)C2O)C(O)C(O)C1O (centres unmarked) [Example 283a]	32 (≈ 23.7 µM)	64 (≈ 47.4 µM)	64 (≈ 47.4 µM)	64 (≈ 47.4 µM)	64 (≈ 47.4 µM)	32 (≈ 23.7 µM)	32 (≈ 23.7 µM)	64 (≈ 47.4 µM)	64 (≈ 47.4 µM)	64 (≈ 47.4 µM)	64 (≈ 47.4 µM)	64 (≈ 47.4 µM)	64 (≈ 47.4 µM)	64 (≈ 47.4 µM)	64 (≈ 47.4 µM)	64 (≈ 47.4 µM)	64 (≈ 47.4 µM)	64 (≈ 47.4 µM)	64 (≈ 47.4 µM)	64 (≈ 47.4 µM)	MIC Coagulase Negative Staphylococcus (GC 4551) (Staphylococcus sp.): 64 µg/mL (≈ 47.4 µM); MIC Coagulase Negative Staphylococcus (GC 4551) (Staphylococcus sp.; broth dilution): 64 µg/mL (≈ 47.4 µM); MIC Staphylococcus aureus (GC 1131) (Staphylococcus sp.): 64 µg/mL (≈ 47.4 µM); MIC Staphylococcus aureus (GC 1131) (Staphylococcus sp.; broth dilution): 64 µg/mL (≈ 47.4 µM); MIC Staphylococcus aureus (GC 3051) (Staphylococcus sp.): 64 µg/mL (≈ 47.4 µM); MIC Staphylococcus aureus (GC 3051) (Staphylococcus sp.; broth dilution): 64 µg/mL (≈ 47.4 µM); MIC Staphylococcus aureus (GC 4542) (Staphylococcus sp.): 64 µg/mL (≈ 47.4 µM); MIC Staphylococcus aureus (GC 4542) (Staphylococcus sp.; broth dilution): 64 µg/mL (≈ 47.4 µM)
CC(C)CC(=O)OCC1OC(OC2C(CO)OC(Oc3ccc(CC4NC(=O)C(Cc5ccccc5)NC(=O)CNC(=O)C(CO)NC(=O)C(C(O)C5CNC(=N)N5C5OC(CO)C(O)C(O)C5O)NC(=O)C(C(O)C5CNC(=N)N5)NC4=O)cc3)C(O)C2O)C(O)C(O)C1O (centres unmarked) [Example 283c, Cyclo[glycylphenylalanyl-O-[4-O-[6-O-(3-methylbutanoyl)-hexopyranosyl]hexopyranosyl]tyrosyl-3-(2-iminoimidazolidin-4-yl)seryl-3-(3-hexopyranosyl-2-iminoimidazolidin-4-yl)serylseryl]]	8 (≈ 5.86 µM)	16 (≈ 11.7 µM)	16 (≈ 11.7 µM)	8 (≈ 5.86 µM)	8 (≈ 5.86 µM)	16 (≈ 11.7 µM)	16 (≈ 11.7 µM)	32 (≈ 23.4 µM)	32 (≈ 23.4 µM)	32 (≈ 23.4 µM)	32 (≈ 23.4 µM)	32 (≈ 23.4 µM)	32 (≈ 23.4 µM)	16 (≈ 11.7 µM)	16 (≈ 11.7 µM)	16 (≈ 11.7 µM)	16 (≈ 11.7 µM)	16 (≈ 11.7 µM)	16 (≈ 11.7 µM)	16 (≈ 11.7 µM)	MIC Coagulase Negative Staphylococcus (GC 4551) (Staphylococcus sp.): 32 µg/mL (≈ 23.4 µM); MIC Coagulase Negative Staphylococcus (GC 4551) (Staphylococcus sp.; broth dilution): 32 µg/mL (≈ 23.4 µM); MIC Staphylococcus aureus (GC 1131) (Staphylococcus sp.): 32 µg/mL (≈ 23.4 µM); MIC Staphylococcus aureus (GC 1131) (Staphylococcus sp.; broth dilution): 32 µg/mL (≈ 23.4 µM); MIC Staphylococcus aureus (GC 3051) (Staphylococcus sp.): 32 µg/mL (≈ 23.4 µM); MIC Staphylococcus aureus (GC 3051) (Staphylococcus sp.; broth dilution): 32 µg/mL (≈ 23.4 µM); MIC Staphylococcus aureus (GC 3053) (Staphylococcus sp.): 64 µg/mL (≈ 46.9 µM); MIC Staphylococcus aureus (GC 3053) (Staphylococcus sp.; broth dilution): 64 µg/mL (≈ 46.9 µM); MIC Staphylococcus aureus (GC 4542) (Staphylococcus sp.): 32 µg/mL (≈ 23.4 µM); MIC Staphylococcus aureus (GC 4542) (Staphylococcus sp.; broth dilution): 32 µg/mL (≈ 23.4 µM)
